Measured values published in patent US3974187A, “Synthetic analogs having the activity of naturally occurring forms of coenzyme Q” (priority 1975, dated 1976).

Legend:
[1] = system: oxidative phosphorylation at site I (ETPH particles); test: Assay of CoQ and analogs for oxidative phosphorylation at site I with ETPH particles; format: biochemical; set-up: Δ NADH / Δ G6P: unit not given here; conditions: for biochemical effectiveness in the site I assay system: compared with CoQ1; for P/NADH Ratio / Δ G6P / Δ NADH / μmoles NADH /min/mg / μmoles NADH min/mg +Rotenone / % Inhibition by Rotenone: CoQ or analog 0.12 nM (footnote 0.12 mM); for μmoles NADH /min/mg: 200 μg ETPH particles, no rotenone; for μmoles NADH min/mg +Rotenone / % Inhibition by Rotenone: rotenone 2 μM
Method: Assays were performed with 200 μg of ETPH particles as described by
Schatz and Racker (J. Biol. Chem., 241, 1429 (1966)). The concentration o
the CoQ compounds was 0.12 mM. Rotenone was added at 2 μM

Solubility in water = format: physicochemical; conditions: in the site I assay system
[2] = system: nutritionally dystrophic rabbit; conditions: Farley et al. 1968; intravenous administration; cited from earlier work
[3] = literature / general knowledge; cited from earlier work
[4] = system: succinoxidase system of beef heart mitochondria; test: CoQ activity: restoring succinoxidase activity of pentane-extracted beef heart mitochondria (manometric); format: biochemical; set-up: key to CoQ10 Act. Index: activity index relative to CoQ10 standard; conditions: for Activation at 400 nMoles %: 400 nmoles of analog, relative to the response to 400 nmoles CoQ10; for Maximum Activation: 400 nm of analog per flask, percent of the response to CoQ4; for CoQ10 Act. Index: calculated from relative effectiveness, activity in terms of that of CoQ10; for effectiveness / utilization in the succinoxidase mitochondrial system: interpretation of Table II; for Estimated nMoles Required for 50% Activation: level required to reinstate approximately 50% of maximum succinoxidase activity, 0.65-0.85 mg PEBHM; for Relative Effectiveness: molar amounts of analog and CoQ4 required to restore the same level of succinoxidase to PEBHM, relative to CoQ4
Method: The CoQ activity of each analog was assessed by examining the ability of the analog to stimulate the succinoxidase activity of beef-heart mitochondria (BHM) from which the naturally occurring CoQ had been removed by pentane extraction. (Table I) Beef heart mitochondria were prepared by the method of Smith (Methods Enzymol., 10, 81 (1967). The pentane extraction was conducted as described by Szarkowska (Arch. Biochem. Biophys., 113, 519 (1966); PEBHM was frozen and used within 10 days of preparation, since pentane extraction decreases the stability of BHM. Succinoxidase activity was determined manometercally, using a Gilson differential respirometer (Iwamoto, Y., Hansen, I. L., Porter, T. H., and Folkers, K., Biochem. Biophys. Res. Comm., 58, 633 (1974), and is reported as […] of oxygen per minute per milligram of protein. A commercial soybean phospholipid preparation (Asolectin), dispersed by sonication (Fleischer, S. and Fleischer, B., Methods Enzymol., 10, 421 (1967), was used to provide phospholipid micelles, and test substances were added as solutions in ethanol. Within Table I are listed the CoQ activities of the analogs and selected reference compounds. The CoQ10 Activity Index is a measure of the effectiveness of the analogs, relative to the standard, in stimulating a submaximal response of succinoxidase activity. Specific activity of the succinoxidase system in response to stimulation by exogenous CoQ10 is given in footnote a of the Table. The quantity of analog to be added was chosen to provide a level of succinoxidase activity corresponding to the nearly linear portion of the activity: dose curve, in which succinoxidase activity stimulated is approximately proportional to the level of analog used. The second column lists the nanomolar quantity of analog required to provide a stimulation of about half of the maximum response. The relative response of the succinoxidase system to 400 nmol of each analog is listed in the third column of the Table. This level of analog is sufficient to insure significant excess over the stoichiometric amount, and maximum response to CoQ4 is obtained at one-tenth to one-twentieth of this dose level. The response to 400 nmol of CoQ10 is lower than is the response to other components listed. The very long side-chain of CoQ10, the natural coenzyme, may hinder the transport of exogenous CoQ10 to the active site.

[5] = human; cited from earlier work
[6] = system: nutritionally deficient children who were anemic; conditions: Majaj and Folkers 1968; cited from earlier work
complex III = complex III (Bos taurus, UniProt P00157+P13272); test: Reduction of cytochrome c by reduced CoQ and analogs catalyzed by complex III; format: biochemical; conditions: for nMoles Cytochrome c Reduced/min / Non-enzymatic Rate of Cytochrome c Reduction: 10 μM reduced CoQ or analog; for nMoles Cytochrome c Reduced/min: 2 μg complex III, 8 μM cytochrome c; for Non-enzymatic Rate of Cytochrome c Reduction: blank without complex III; for response of complex III system to the reduced analog as substrate: after reduction and extraction; for % Inhibition by Antimycin A: antimycin A 1 μg/ml
Method: Reduction of cytochrome c was measured at 550-540 nm. The reaction mixtur
contained in 1.0 ml: […] KP1, pH 7.5; 0.05 mM EDTA; 8 μM
cytochrome c1; 10 μM reduced CoQ or analog and 2 μg complex
III. When indicated, antimycin A was added to the assay medium at 1
μg/ml. An extinction coefficient of 19 mM^-^1 was used for […]

Chemical stability = format: physicochemical; conditions: compared with CoQ1 and CoQ2
periodontal disease = conditions: Matsummura et al. 1973; cited from earlier work

For `COC1=C(OC)C(=O)C(C/C=C(\C)CC/C=C(\C)CC/C=C(\C)CC/C=C(\C)CC/C=C(\C)CCC=C(C)C)=C(C)C1=O` [CoQ6, reference compound], the “biochemical effectiveness in the site I assay system” value (“biochemical effectiveness” below) [1] was “not adequate” and the “solubility in water” value (Solubility in water) was “somewhat more soluble”.
For `COC1=C(OC)C(=O)C(C/C=C(\C)CC/C=C(\C)CCC=C(C)C)=C(C)C1=O` [CoQ3, coenzyme Q3], the “therapeutic activity, saving the life of the dying dystrophic rabbit” value [2] is given as “did not save the life of the dying dystrophic rabbit” and the “chemical stability of isoprenoid quinones” value [3] is given as “relative chemical instability”.
In the case of `COC1=C(OC)C(=O)C(C/C=C(\C)CC/C=C(\C)CC/C=C(\C)CC/C=C(\C)CC/C=C(\C)CC/C=C(\C)CC/C=C(\C)CC/C=C(\C)CC/C=C(\C)CCC=C(C)C)=C(C)C1=O` [CoQ10, coenzyme Q10, reference compound], the “Specific Activity of the enzyme system” value ([4]; 10 nmoles CoQ10/flask) is reported as 0.160 μatm O2 /mg protein min, the “Specific Activity of the enzyme system” value ([4]; 20 nmoles CoQ10/flask) is reported as 0.248 μatm O2 /mg protein min and the “Specific Activity of the enzyme system” value ([4]; 30 nmoles CoQ10/flask) is reported as 0.298 μatm O2 /mg protein min. The “Specific Activity of the enzyme system” value ([4]; 40 nmoles CoQ10/flask) was 0.344 μatm O2 /mg protein min, the “Specific Activity of the enzyme system” value ([4]; 100 nmoles CoQ10/flask) was 0.488 μatm O2 /mg protein min and the “Activation at 400 nMoles %” value [4] was 100%. For the same molecule, the “Activation at 3.46 nMoles” value ([4]; 3.46 (nMoles) CoQ10) was “no activation”, the “Maximum Activation” value [4] was 78% and the “CoQ10 Act. Index” value [4] was 1.0. The “effectiveness / utilization in the succinoxidase mitochondrial system” value (shortened to “effectiveness / utilization”) [4] was “poorly utilized”, the “Estimated nMoles Required for 50% Activation” value [4] was 41.7 nmol and the “Relative Effectiveness” value [4] was 4.8%. For the same molecule, the “therapeutic activity, saving the life of the dying dystrophic rabbit” value [2] was “failed to elicit therapeutic activity”, the “oral absorption” value [5] was “inefficient” and the “hematological activity” value [6] was “showed hematological activity”. The “solubility in water” value (Solubility in water) was “too insoluble”.
With `CCCCCC1=C(C)C(=O)C(OC)=C(OC)C1=O` [Pentyl, 2,3-Dimethoxy-5-methyl-6-pentyl-1,4-benzoquinone] the “nMoles Cytochrome c Reduced/min” value (complex III) was 14.6 nmol/min, the “Non-enzymatic Rate of Cytochrome c Reduction” value (complex III) was 0.2 nmol/min and the “response of complex III system to the reduced analog as substrate” value (“response … to the reduced analog as substrate” for short) (complex III) was “excellent substrates”. For the same molecule, the “% Inhibition by Antimycin A” value (complex III) was 100%, the “P/NADH Ratio” value [1] was 0.44 and the “Δ G6P” value [1] was 0.036. For the same molecule, the “Δ NADH” value [1] was 0.082, the “μmoles NADH /min/mg” value [1] was 0.47 μmoles NADH /min/mg and the “μmoles NADH min/mg +Rotenone” value [1] was 0.02 μmoles NADH min/mg. The “biochemical effectiveness” value [1] was “as biochemically effective as CoQ1”, the “% Inhibition by Rotenone” value [1] was 95% and the “Activation at 400 nMoles %” value [4] was 110%. The “Maximum Activation” value [4] was 86%, the “CoQ10 Act. Index” value [4] was 1.2 and the “effectiveness / utilization” value [4] was “about as little effective as coenzyme Q10 itself”. The “Estimated nMoles Required for 50% Activation” value [4] was 35.1 nmol, the “Relative Effectiveness” value [4] was 5.7% and the “chemical stability” value (Chemical stability; listed as 6-n-pentyl) was “superior to CoQ1 and CoQ2 in chemical stability”. The “chemical stability” value (Chemical stability; listed as PB) was “apparent greater stability”.
In the case of `CCCCCCCCCCC1=C(C)C(=O)C(OC)=C(OC)C1=O` [Decyl, 2,3-Dimethoxy-5-methyl-6-decyl-1,4-benzoquinone], the “nMoles Cytochrome c Reduced/min” value (complex III) is reported as 29.0 nmol/min, the “Non-enzymatic Rate of Cytochrome c Reduction” value (complex III) is reported as 0.2 nmol/min and the “response … to the reduced analog as substrate” value (complex III) is reported as “excellent substrates”. The “% Inhibition by Antimycin A” value (complex III) was 98%, the “P/NADH Ratio” value [1] was 0.46 and the “Δ G6P” value [1] was 0.039. For the same molecule, the “Δ NADH” value [1] was 0.085, the “μmoles NADH /min/mg” value [1] was 0.52 μmoles NADH /min/mg and the “μmoles NADH min/mg +Rotenone” value [1] was 0 μmoles NADH min/mg. The “biochemical effectiveness” value [1] was “as biochemically effective as CoQ1”, the “% Inhibition by Rotenone” value [1] was 100% and the “Activation at 400 nMoles %” value [4] was 123%. For the same molecule, the “Maximum Activation” value [4] was 96%, the “CoQ10 Act. Index” value [4] was 11.7 and the “effectiveness / utilization” value [4] was “effective”. For the same molecule, the “Estimated nMoles Required for 50% Activation” value [4] was 3.6 nmol, the “Relative Effectiveness” value [4] was 56% and the “chemical stability” value (Chemical stability; listed as 6-n-decyl) was “superior to CoQ1 and CoQ2 in chemical stability”. The “chemical stability” value (Chemical stability; listed as DB) was “apparent greater stability”.
For `COC1=C(OC)C(=O)C(C/C=C(\C)CCCC(C)CCCC(C)CCCC(C)C)=C(C)C1=O` (centres unmarked) [H6 CoQ4, hexahydrocoenzyme Q4, reference compound], the “Activation at 400 nMoles %” value [4] was 121%, the “Maximum Activation” value [4] was 95% and the “CoQ10 Act. Index” value [4] was 2.2. The “Estimated nMoles Required for 50% Activation” value [4] was 19.4 nmol, the “Relative Effectiveness” value [4] was 10.3% and the “hematological activity” value [6] was “showed hematological activity”. The “treatment of periodontal disease” value (periodontal disease) was “enhanced treatment of periodontal disease”.
In the case of `CCCCCCCCCCCCCCCC1=C(C)C(=O)C(OC)=C(OC)C1=O` [Pentadecyl, 2,3-Dimethoxy-5-methyl-6-pentadecyl-1,4-benzoquinone], the “inhibition of complex III system” value (complex III) is reported as “no inhibition”, the “response … to the reduced analog as substrate” value (complex III) is reported as “virtually unresponsive” and the “biochemical effectiveness” value [1] is reported as “not suitable or as effective”. The “Activation at 400 nMoles %” value [4] was 121%, the “Maximum Activation” value [4] was 94% and the “CoQ10 Act. Index” value [4] was 4.4. The “Estimated nMoles Required for 50% Activation” value [4] was 9.5 nmol, the “Relative Effectiveness” value [4] was 21% and the “solubility in water” value (Solubility in water) was “lower solubility in water”.
